Laboratory results as given in patent US9234230B2, “Screening method and compounds for modulating telomerase activity” (The Wistar Institute, priority 2010, dated 2016).

Tested on: TERT protein
Assay: Fluorescence polarization binding assay (inhibitory activity of selected Table 9 compounds)
Design: species or system Tribolium castaneum
Conditions: TERT-Chim21m complex 250 nM, cyanine 5-dCTP 10 nM, footnote: observed value corresponds to 50% of the actual inhibition value; for Inhibition at 5 μM (%)*: compound 5 μM; for Inhibition at 50 μM (%)*: compound 50 μM
Experimental: The TERT protein was expressed and purified as described herein. Protein was concentrated to 4.72 mg ml-l using an AMICON 30K cutoff filter (Millipore) and stored at −80° C. for binding assays.
For the binding assay, TERT protein was diluted to a 500 nM concentration in a solution of 50 mM Tris-HCl, pH 7.5, 200 mM KCl, and 20% glycerol. A 1.2-fold molar excess of the Chim21m RNA-DNA hybrid (Integrated DNA Technologies), containing the template for telomere extension (5′-rCrUrG rArCrC rUrGrA rCTT CGG TCA GGT-3′; SEQ ID NO:19), was then added to these samples and kept on ice. The cyanine 5-dCTP (Perkin Elmer) for the binding study was made up to a 20 nM concentration in sterile, RNase, DNase free water with […].
Compound screens were carried out as 30.5 μl reactions in a 384-well, round bottom plate (Thermo). Fifteen μl of TERT-Chim21m complex was first added to each well. Then 0.5 μl of library compound (ChemBridge) was added to this solution. Finally, 15 μl of the nucleotide-MgCl2 sample was added, and the solution mixed to provide final concentrations of 250 nM protein-nucleic acid, 10 nM cyanine 5-dCTP, and […]. Final compound concentrations were 50 μM and 5 μM. All additions were completed using a Janus 96/384 Modular Dispensing Tool (Perkin Elmer), performed in triplicate, and equilibrated for 40 minutes. Fluorescence polarization was measured at λex=620 nm and λem=688 nm on an EnVision Xcite Multilabel plate reader (Perkin Elmer). Polarization was calculated using the standard equation: P=(V−H)/(V+H), where P denotes polarization, V denotes vertical emission intensity, and H denotes horizontal emission intensity.

Inhibition at 5 μM (%)* [%]	Inhibition at 50 μM (%)* [%]	SMILES
4.74	27.38	CC(C(=O)Nn1cnnc1)N1C(=O)c2ccccc2C1=O (stereo not drawn) [2-(1,3-dioxo-1,3-dihydro-2H-isoindol-2-yl)-N-4H-1,2,4-triazol-4-ylpropanamide]
16.14	30.92	CCOc1cc(CNCc2ccco2)cc(Br)c1OCC(N)=O.Cl [2-(2-bromo-6-ethoxy-4-{[(2-furylmethyl)amino]methyl}phenoxy)acetamide hydrochloride]
12.21	27.65	COc1cc(CNCCc2ccccc2)cc(Br)c1OCC(N)=O [2-(2-bromo-6-methoxy-4-{[(2-phenylethyl)amino]methyl}phenoxy)acetamide]
17.68	49.10	CCOc1cc(CNCc2cccs2)cc(Cl)c1OCC(N)=O.Cl [2-(2-chloro-6-ethoxy-4-{[(2-thienylmethyl)amino]methyl}phenoxy)acetamide hydrochloride]
14.87	38.78	CCOc1cc(CNCc2cccnc2)cc(Cl)c1OCC(N)=O.Cl [2-(2-chloro-6-ethoxy-4-{[(3-pyridinylmethyl)amino]methyl}phenoxy)acetamide hydrochloride]
15.94	29.33	COc1cc(CNc2ccc3[nH]c(=O)[nH]c3c2)cc(Cl)c1OCC(N)=O [2-(2-chloro-6-methoxy-4-{[(2-oxo-2,3-dihydro-1H-benzimidazol-5-yl)amino]methyl}phenoxy)acetamide]
10.94	41.26	COc1cc(CNCc2cccs2)cc(Cl)c1OCC(N)=O.Cl [2-(2-chloro-6-methoxy-4-{[(2-thienylmethyl)amino]methyl}phenoxy)acetamide hydrochloride]
23.05	45.56	COc1cc(CNCc2ccncc2)cc(Cl)c1OCC(N)=O.Cl [2-(2-chloro-6-methoxy-4-{[(4-pyridinylmethyl)amino]methyl}phenoxy)acetamide hydrochloride]
18.27	30.23	COc1cc(CNCCN2CCOCC2)cc(Br)c1OCC(N)=O.Cl.Cl [2-[2-bromo-6-methoxy-4-({[2-(4-morpholinyl)ethyl]amino}methyl)phenoxy]acetamide dihydrochloride]
10.94	29.35	Cc1ccc(C(=O)Nn2cnnc2)c(Cl)c1 [2-chloro-4-methyl-N-4H-1,2,4-triazol-4-ylbenzamide]
17.00	31.30	CNCc1cc(Cl)c(OCC(N)=O)c(OC)c1.Cl [2-{2-chloro-6-methoxy-4-[(methylamino)methyl]phenoxy}acetamide hydrochloride]
13.73	35.18	COc1cc(CNC2C3CC4CC(C3)CC2C4)cc(Cl)c1OCC(N)=O (stereo not drawn) [2-{4-[(2-adamantylamino)methyl]-2-chloro-6-methoxyphenoxy}acetamide]
4.96	29.96	COc1cc(CNCc2ccccc2)cc(Cl)c1OCC(N)=O.Cl [2-{4-[(benzylamino)methyl]-2-chloro-6-methoxyphenoxy}acetamide hydrochloride]
18.11	36.58	NC(=O)CCN1C(=O)c2cccc3cccc(c23)C1=O [3-(1,3-dioxo-1H-benzo[de]isoquinolin-2(3H)-yl)propanamide]
11.97	30.04	O=C(Nn1cnnc1)c1cc(Br)ccc1Cl [5-bromo-2-chloro-N-4H-1,2,4-triazol-4-ylbenzamide]
6.67	29.71	CC(O)CNC(=O)C(=O)Nc1ccc2c(c1)OCO2 (stereo not drawn) [N-1,3-benzodioxol-5-yl-N′-(2-hydroxypropyl)ethanediamide]
13.44	30.42	O=C(NCCCO)C1CCCN(S(=O)(=O)c2ccc3ccccc3c2)C1 (stereo not drawn) [N-(3-hydroxypropyl)-1-(2-naphthylsulfonyl)-3-piperidinecarboxamide]
19.23	39.41	CCOC(=O)c1c(NC(=O)/C=C/C(N)=O)sc(C)c1C [ethyl 2-[(4-amino-4-oxo-2-butenoyl)amino]-4,5-dimethyl-3-thiophenecarboxylate]
